Data: patent publication US7094900B2, “N-Aryl-2-oxazolidinones and their derivatives” (Pharmacia & Upjohn Company LLC, priority 2002, dated 2006)
Values after ≈ are worked out from the molar mass of the structure shown.

The compounds below were run on Saur 9213 (assay: MIC test, standard agar dilution method). Conditions: Mueller Hinton agar, incubated overnight at 35° C., lowest concentration that inhibits visible growth.
Type: cell-based
Text: The oxazolidinone antibacterial agents of this invention have useful activity against a variety of organisms. The in vitro activity of compounds of this invention can be assessed by standard testing procedures such as the determination of minimum inhibitory concentration (MIC) by agar dilution as described in “Approved Standard. Methods for Dilution Antimicrobial Susceptibility Tests for Bacteria That Grow Aerobically”, 3rd. ed., published 1993 by the National Committee for Clinical Laboratory Standards, Villanova, Pa., USA. MIC Test Method The in vitro MICs of test compounds were determined by a standard agar dilution method. A stock drug solution of each analog was prepared in the preferred solvent, usually DMSO:H2O (1:3). Serial 2-fold dilutions of each sample are made using 1.0 ml aliquots of sterile distilled water. To each 1.0 ml aliquot of drug was added 9 ml of molten Mueller Hinton gar medium. The drug-supplemented agar was mixed, poured into 15×100 mm petri dishes, and allowed to solidify and dry prior to inoculation. Vial of each of the test organisms are maintained frozen in the vapor phase of a liquid nitrogen freezer. Test cultures are grown overnight at 35° C. on the medium appropriate for the organism. Colonies are harvested with a sterile swab, and cell suspensions are prepared in Trypticase Soy broth (TSB) to equal the turbidity of a 0.5 McFarland standard. A 1:20 dilution of each suspension was made in TSB. The plates containing the drug supplemented agar are inoculated with a 0.001 ml drop of the cell suspension using a Steers replicator, yielding approximately 10^4 to 10^5 cells per spot. The plates are incubated overnight at 35° C. Following incubation the Minimum Inhibitory Concentration (MIC μg/ml), the lowest concentration of the drug that inhibits visible growth of the organism, was read and recorded.

SMILES	MIC
CC(=O)NC[C@H]1CN(c2ccc(C3CCC(=O)NC3)c(F)c2)C(=O)O1 (stereo partly drawn) [Example 1, N-({(5S)-3-[3-fluoro-4-(6-oxopiperidin-3-yl)phenyl]-2-oxo-1,3-oxazolidin-5-yl}methyl)acetamide]	4 µg/mL (≈ 11.4 µM)
CCC(=O)NC[C@H]1CN(c2ccc(C3CCC(=O)NC3)c(F)c2)C(=O)O1 (stereo partly drawn) [Example 2, N-({(5S)-3-[3-fluoro-4-(6-oxopiperidin-3-yl)phenyl]-2-oxo-1,3-oxazolidin-5-yl}methyl)propanamide]	4 µg/mL (≈ 11 µM)
O=C1CCC(c2ccc(N3C[C@H](CNC(=O)C(Cl)Cl)OC3=O)cc2F)CN1 (stereo partly drawn) [Example 3, 2,2-dichloro-N-({(5S)-3-[3-fluoro-4-(6-oxopiperidin-3-yl)phenyl]-2-oxo-1,3-oxazolidin-5-yl}methyl)acetamide]	4 µg/mL (≈ 9.56 µM)
O=C1CCC(c2ccc(N3C[C@H](CNC(=S)C(F)F)OC3=O)cc2F)CN1 (stereo partly drawn) [Example 4, 2,2-difluoro-N-({(5S)-3-[3-fluoro-4-(6-oxopiperidin-3-yl)phenyl]-2-oxo-1,3-oxazolidin-5-yl}methyl)ethanethioamide]	1 µg/mL (≈ 2.49 µM)
CC(=O)NC[C@H]1CN(c2cc(F)c(C3CCC(=O)NC3)c(F)c2)C(=O)O1 (stereo partly drawn) [Example 6, N-({(5S)-3-[3,5-difluoro-4-(6-oxopiperidin-3-yl)phenyl]-2-oxo-1,3-oxazolidin-5-yl}methyl)acetamide]	4 µg/mL (≈ 10.9 µM)
O=C1CCC(c2c(F)cc(N3C[C@H](CNC(=S)C(F)F)OC3=O)cc2F)CN1 (stereo partly drawn) [Example 8, N-({(5S)-3-[3,5-difluoro-4-(6-oxopiperidin-3-yl)phenyl]-2-oxo-1,3-oxazolidin-5-yl}methyl)-2,2-difluoroethanethioamide]	1 µg/mL (≈ 2.38 µM)
O=C1CCC(c2c(F)cc(N3C[C@H](CNC(=O)C(F)F)OC3=O)cc2F)CN1 (stereo partly drawn) [Example 9, N-({(5S)-3-[3,5-difluoro-4-(6-oxopiperidin-3-yl)phenyl]-2-oxo-1,3-oxazolidin-5-yl}methyl)-2,2-difluoroacetamide]	4 µg/mL (≈ 9.92 µM)
CC(=O)NC[C@H]1CN(c2ccc(C3CCC(=O)NC3)cc2)C(=O)O1 (stereo partly drawn) [Example 10, N-({(5S)-2-oxo-3-[4-(6-oxopiperidin-3-yl)phenyl]-1,3-oxazolidin-5-yl}methyl)acetamide]	8 µg/mL (≈ 24.1 µM)
CC(=O)NC[C@H]1CN(c2ccc(C3CCNC(=O)C3)c(F)c2)C(=O)O1 (stereo partly drawn) [Example 16, N-({(5S)-3-[3-fluoro-4-(2-oxopiperidin-4-yl)phenyl]-2-oxo-1,3-oxazolidin-5-yl}methyl)acetamide]	2 µg/mL (≈ 5.72 µM)
CCC(=O)NC[C@H]1CN(c2ccc(C3CCNC(=O)C3)c(F)c2)C(=O)O1 (stereo partly drawn) [Example 17, N-({(5S)-3-[3-fluoro-4-(2-oxopiperidin-4-yl)phenyl]-2-oxo-1,3-oxazolidin-5-yl}methyl)propanamide]	4 µg/mL (≈ 11 µM)
O=C1CC(c2c(F)cc(N3C[C@H](CNC(=S)C(F)F)OC3=O)cc2F)CCN1 (stereo partly drawn) [Example 21, N-({(5S)-3-[3,5-difluoro-4-(2-oxopiperidin-4-yl)phenyl]-2-oxo-1,3-oxazolidin-5-yl}methyl)-2,2-difluoroethanethioamide]	2 µg/mL (≈ 4.77 µM)
CC(=O)NC[C@H]1CN(c2ccc(C3CCNC(=O)C3)cc2)C(=O)O1 (stereo partly drawn) [Example 22, N-({(5S)-2-oxo-3-[4-(2-oxopiperidin-4-yl)phenyl]-1,3-oxazolidin-5-yl}methyl)acetamide]	4 µg/mL (≈ 12.1 µM)
CC(=O)NC[C@H]1CN(c2ccc(C3CCN(C)C(=O)C3)cc2)C(=O)O1 (stereo partly drawn) [Example 25, N-({(5S)-3-[4-(1-methyl-2-oxopiperidin-4-yl)phenyl]-2-oxo-1,3-oxazolidin-5-yl}methyl)acetamide]	4 µg/mL (≈ 11.6 µM)
O=C1CCC(c2c(F)cc(N3C[C@H](Cn4ccnn4)OC3=O)cc2F)CN1 (stereo partly drawn) [Example 26, 5-{2,6-difluoro-4-[(5R)-2-oxo-5-(1H-1,2,3-triazol-1-ylmethyl)-1,3-oxazolidin-3-yl]phenyl}piperidin-2-one]	2 µg/mL (≈ 5.3 µM)

The next lines start with the values.

MIC	SMILES
4 µg/mL (≈ 10.4 µM)	O=C1CCC(c2ccc(N3C[C@H](CNC(=O)C(F)F)OC3=O)cc2F)CN1 (stereo partly drawn) [Example 5, 2,2-difluoro-N-({(5S)-3-[3-fluoro-4-(6-oxopiperidin-3-yl)phenyl]-2-oxo-1,3-oxazolidin-5-yl}methyl)acetamide]
2 µg/mL (≈ 4.58 µM)	O=C1CCC(c2c(F)cc(N3C[C@H](CNC(=O)C(Cl)Cl)OC3=O)cc2F)CN1 (stereo partly drawn) [Example 7, 2,2-dichloro-N-({(5S)-3-[3,5-difluoro-4-(6-oxopiperidin-3-yl)phenyl]-2-oxo-1,3-oxazolidin-5-yl}methyl)acetamide]
8 µg/mL (≈ 23.2 µM)	CCC(=O)NC[C@H]1CN(c2ccc(C3CCC(=O)NC3)cc2)C(=O)O1 (stereo partly drawn) [Example 11, N-({(5S)-2-oxo-3-[4-(6-oxopiperidin-3-yl)phenyl]-1,3-oxazolidin-5-yl}methyl)propanamide]
4 µg/mL (≈ 9.99 µM)	O=C1CCC(c2ccc(N3C[C@H](CNC(=O)C(Cl)Cl)OC3=O)cc2)CN1 (stereo partly drawn) [Example 12, 2,2-dichloro-N-({(5S)-2-oxo-3-[4-(6-oxopiperidin-3-yl)phenyl]-1,3-oxazolidin-5-yl}methyl)acetamide]
2 µg/mL (≈ 5.22 µM)	O=C1CCC(c2ccc(N3C[C@H](CNC(=S)C(F)F)OC3=O)cc2)CN1 (stereo partly drawn) [Example 13, 2,2-difluoro-N-({(5S)-2-oxo-3-[4-(6-oxopiperidin-3-yl)phenyl]-1,3-oxazolidin-5-yl}methyl)ethanethioamide]
8 µg/mL (≈ 23.2 µM)	CC(=O)NC[C@H]1CN(c2ccc(C3CCC(=O)N(C)C3)cc2)C(=O)O1 (stereo partly drawn) [Example 15, ({(5S)-3-[4-(1-methyl-6-oxopiperidin-3-yl)phenyl]-2-oxo-1,3-oxazolidin-5-yl}methyl)acetamide]
1 µg/mL (≈ 2.49 µM)	O=C1CC(c2ccc(N3C[C@H](CNC(=S)C(F)F)OC3=O)cc2F)CCN1 (stereo partly drawn) [Example 18, 2,2-difluoro-N-({(5S)-3-[3-fluoro-4-(2-oxopiperidin-4-yl)phenyl]-2-oxo-1,3-oxazolidin-5-yl}methyl)ethanethioamide]
4 µg/mL (≈ 10.9 µM)	CC(=O)NC[C@H]1CN(c2cc(F)c(C3CCNC(=O)C3)c(F)c2)C(=O)O1 (stereo partly drawn) [Example 19, N-({(5S)-3-[3,5-difluoro-4-(2-oxopiperidin-4-yl)phenyl]-2-oxo-1,3-oxazolidin-5-yl}methyl)acetamide]
8 µg/mL (≈ 21 µM)	CCC(=O)NC[C@H]1CN(c2cc(F)c(C3CCNC(=O)C3)c(F)c2)C(=O)O1 (stereo partly drawn) [Example 20, N-({(5S)-3-[3,5-difluoro-4-(2-oxopiperidin-4-yl)phenyl]-2-oxo-1,3-oxazolidin-5-yl}methyl)propanamide]
1 µg/mL (≈ 2.61 µM)	O=C1CC(c2ccc(N3C[C@H](CNC(=S)C(F)F)OC3=O)cc2)CCN1 (stereo partly drawn) [Example 23, 2,2-difluoro-N-({(5S)-2-oxo-3-[4-(2-oxopiperidin-4-yl)phenyl]-1,3-oxazolidin-5-yl}methyl)ethanethioamide]
8 µg/mL (≈ 23.2 µM)	CCC(=O)NC[C@H]1CN(c2ccc(C3CCNC(=O)C3)cc2)C(=O)O1 (stereo partly drawn) [Example 24, N-({(5S)-2-oxo-3-[4-(2-oxopiperidin-4-yl)phenyl]-1,3-oxazolidin-5-yl}methyl)propanamide]
